Experimental data: patent EP4678638A1, “NEW E3 UBIQUITIN LIGASE LIGAND, PROTEIN DEGRADATION AGENT AND USE THEREOF” (priority 2023, dated 2024)

What was measured:
Type in all cases: cell-based
Settings in all cases: Table D16
CK1a = target: T1, CK1a (Homo sapiens, UniProt P48729+Q96SW2); experiment: Western blot degradation of CK1a (hPBMC)
T1 construct: evaluate the effects of the compounds of the present disclosure on the expression of target proteins in cells; endogenous in cells; host or cells: hPBMC
Procedure: (§1) Conventional Western blot assay was performed to evaluate the effects of the compounds of the present disclosure on the expression of target proteins in cells.
(§2) (1) Cell Seeding and Protein Harvesting: The selected cells were processed according to the cell seeding procedure and protein harvesting procedure in Table III-2. Table III-2 Cell Seeding and Protein Harvesting Procedures
(§3) (2) To the collected supernatant, 5X SDS sample loading buffer was added, followed by denaturation at 95°C for 5 minutes. The denatured samples were then separated by SDS-PAGE electrophoresis on a polyacrylamide gel. Proteins were transferred to a nitrocellulose membrane (0.45 µm NC membrane), blocked with blocking buffer at room temperature for 1 hour, and subjected to antibody incubation and development procedures according to the antibody manufacturer's instructions (Cell Signaling Technology).
(§4) Half-Maximal Degradation Concentration value (the drug concentration required for degrading proteins by 50%, abbreviated as DC50) reads method: comparing the grayscale values of Western blot bands from drug-treated samples with those from blank DMSO-treated controls, and identifying the drug concentration range at which the grayscale value is half that of the DMSO-treated control bands.
(§5) DC50 values can be calculated using ImageJ software to measure grayscale values of Western blot bands from drug-treated samples. The concentration-response curve is fitted to estimate the drug concentration corresponding to half the grayscale value.
(§6) Target protein remaining (%) refers to the percentage of target protein remaining in hPBMC cells after treatment with protein degrader compounds.
(§7) Calculation method for target protein remaining (%): Use ImageJ software to measure grayscale values of Western blot bands from drug (protein degrader)-treated samples. The grayscale value of drug-treated bands is divided by that of internal control protein bands, and the resulting quotient is normalized to obtain the relative percentage of remaining target protein after protein degrader treatment.
(§8) Target protein degradation rate (%) = 100% - target protein remaining (%).

IKZF2 = target: T2, IKZF2 (Homo sapiens, UniProt Q96SW2+Q9UKS7); experiment: Western blot degradation of IKZF2 (hPBMC)
T2 construct: evaluate the effects of the compounds of the present disclosure on the expression of target proteins in cells; endogenous in cells; host or cells: hPBMC
Procedure: as §1, §2, §3, §4, §5, §6, §7, §8

GSPT1 = target: T3, GSPT1 (Homo sapiens, UniProt P15170+Q96SW2); experiment: Western blot degradation of GSPT1 (hPBMC)
T3 construct: evaluate the effects of the compounds of the present disclosure on the expression of target proteins in cells; endogenous in cells; host or cells: hPBMC
Procedure: as §1, §2, §3, §4, §5, §6, §7, §8

IKZF1 = target: T4, IKZF1 (Homo sapiens, UniProt Q13422+Q96SW2); experiment: Western blot degradation of IKZF1 (hPBMC)
T4 construct: evaluate the effects of the compounds of the present disclosure on the expression of target proteins in cells; endogenous in cells; host or cells: hPBMC
Procedure: as §1, §2, §3, §4, §5, §6, §7, §8

WEE1 = target: T5, WEE1 (Homo sapiens, UniProt P30291+Q96SW2); experiment: Western blot degradation of WEE1 (hPBMC)
T5 construct: evaluate the effects of the compounds of the present disclosure on the expression of target proteins in cells; endogenous in cells; host or cells: hPBMC
Procedure: as §1, §2, §3, §4, §5, §6, §7, §8

IKZF3 = target: T6, IKZF3 (Homo sapiens, UniProt Q96SW2+Q9UKT9); experiment: Western blot degradation of IKZF3 (hPBMC)
T6 construct: evaluate the effects of the compounds of the present disclosure on the expression of target proteins in cells; endogenous in cells; host or cells: hPBMC
Procedure: as §1, §2, §3, §4, §5, §6, §7, §8

T5 sequence (P30291 whole entry): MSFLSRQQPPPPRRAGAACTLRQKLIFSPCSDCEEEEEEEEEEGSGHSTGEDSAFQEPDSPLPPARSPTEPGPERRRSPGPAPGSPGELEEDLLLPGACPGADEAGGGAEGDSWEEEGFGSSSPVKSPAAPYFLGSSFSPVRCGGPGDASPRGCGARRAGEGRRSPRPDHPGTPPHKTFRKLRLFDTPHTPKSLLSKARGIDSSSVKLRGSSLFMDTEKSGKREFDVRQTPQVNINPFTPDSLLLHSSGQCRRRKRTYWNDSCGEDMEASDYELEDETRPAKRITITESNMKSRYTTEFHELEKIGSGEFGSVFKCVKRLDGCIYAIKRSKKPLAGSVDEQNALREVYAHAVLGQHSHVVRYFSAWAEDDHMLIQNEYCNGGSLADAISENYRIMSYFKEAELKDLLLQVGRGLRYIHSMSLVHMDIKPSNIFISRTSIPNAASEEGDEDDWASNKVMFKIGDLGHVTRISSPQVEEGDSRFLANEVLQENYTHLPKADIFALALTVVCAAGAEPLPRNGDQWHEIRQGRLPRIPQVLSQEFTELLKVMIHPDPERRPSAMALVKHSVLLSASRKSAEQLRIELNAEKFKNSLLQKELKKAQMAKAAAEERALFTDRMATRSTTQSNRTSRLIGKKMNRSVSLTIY
T5 sequence (Q96SW2 whole entry): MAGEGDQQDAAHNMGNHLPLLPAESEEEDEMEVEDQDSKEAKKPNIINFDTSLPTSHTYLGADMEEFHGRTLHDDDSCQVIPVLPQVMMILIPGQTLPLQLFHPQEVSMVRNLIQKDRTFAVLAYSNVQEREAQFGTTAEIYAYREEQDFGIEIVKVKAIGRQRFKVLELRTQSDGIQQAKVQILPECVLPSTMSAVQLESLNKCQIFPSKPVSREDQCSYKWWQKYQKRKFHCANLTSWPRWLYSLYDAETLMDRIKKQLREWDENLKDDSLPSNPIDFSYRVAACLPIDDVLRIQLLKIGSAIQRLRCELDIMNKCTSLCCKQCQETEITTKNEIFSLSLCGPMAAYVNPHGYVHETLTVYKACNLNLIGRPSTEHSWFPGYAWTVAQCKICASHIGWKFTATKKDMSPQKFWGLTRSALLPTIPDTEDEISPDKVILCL
T5 sequence (Q16531 whole entry partner): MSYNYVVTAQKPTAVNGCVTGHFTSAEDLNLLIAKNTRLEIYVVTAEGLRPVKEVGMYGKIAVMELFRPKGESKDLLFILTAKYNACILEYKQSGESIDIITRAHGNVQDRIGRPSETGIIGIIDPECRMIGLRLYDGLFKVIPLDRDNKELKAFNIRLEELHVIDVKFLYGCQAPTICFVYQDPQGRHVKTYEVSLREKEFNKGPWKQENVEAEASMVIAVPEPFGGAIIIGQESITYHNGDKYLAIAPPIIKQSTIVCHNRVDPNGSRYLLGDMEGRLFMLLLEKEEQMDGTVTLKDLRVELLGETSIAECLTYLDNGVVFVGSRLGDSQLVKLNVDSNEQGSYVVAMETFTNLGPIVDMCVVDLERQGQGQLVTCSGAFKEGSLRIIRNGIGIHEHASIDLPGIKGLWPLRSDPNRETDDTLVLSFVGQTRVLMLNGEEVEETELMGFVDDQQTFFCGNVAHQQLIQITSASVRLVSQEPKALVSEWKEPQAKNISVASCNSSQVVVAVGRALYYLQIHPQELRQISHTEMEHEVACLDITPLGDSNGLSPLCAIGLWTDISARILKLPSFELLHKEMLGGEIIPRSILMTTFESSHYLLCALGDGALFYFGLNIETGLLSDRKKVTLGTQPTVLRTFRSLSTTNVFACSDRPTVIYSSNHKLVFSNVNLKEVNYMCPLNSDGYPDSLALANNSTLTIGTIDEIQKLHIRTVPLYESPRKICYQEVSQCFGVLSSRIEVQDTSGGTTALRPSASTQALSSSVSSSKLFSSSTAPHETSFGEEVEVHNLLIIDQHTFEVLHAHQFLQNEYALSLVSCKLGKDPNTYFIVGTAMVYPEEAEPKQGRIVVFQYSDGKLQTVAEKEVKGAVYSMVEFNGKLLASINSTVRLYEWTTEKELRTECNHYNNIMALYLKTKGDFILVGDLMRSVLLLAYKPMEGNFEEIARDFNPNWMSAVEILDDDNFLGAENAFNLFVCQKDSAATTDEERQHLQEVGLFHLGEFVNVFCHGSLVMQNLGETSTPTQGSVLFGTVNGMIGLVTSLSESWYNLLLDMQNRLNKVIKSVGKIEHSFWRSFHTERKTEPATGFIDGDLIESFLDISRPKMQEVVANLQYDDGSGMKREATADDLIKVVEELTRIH
T6 sequence (Q9UKT9 whole entry): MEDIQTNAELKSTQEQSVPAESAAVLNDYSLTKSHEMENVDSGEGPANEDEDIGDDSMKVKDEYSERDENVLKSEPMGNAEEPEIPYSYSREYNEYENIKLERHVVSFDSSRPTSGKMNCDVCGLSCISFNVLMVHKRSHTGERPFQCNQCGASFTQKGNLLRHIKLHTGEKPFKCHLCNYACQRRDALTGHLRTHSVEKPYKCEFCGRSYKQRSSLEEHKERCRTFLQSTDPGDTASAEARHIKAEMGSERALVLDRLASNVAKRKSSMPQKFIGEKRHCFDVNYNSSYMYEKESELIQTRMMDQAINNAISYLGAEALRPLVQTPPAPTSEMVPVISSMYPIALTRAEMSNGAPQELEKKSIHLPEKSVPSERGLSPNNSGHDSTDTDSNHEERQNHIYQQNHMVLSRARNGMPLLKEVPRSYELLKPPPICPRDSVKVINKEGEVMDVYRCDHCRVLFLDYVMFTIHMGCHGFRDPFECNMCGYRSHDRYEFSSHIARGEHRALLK
T6 sequence (Q96SW2 whole entry): as the sequence (Q96SW2 whole entry) above
T6 sequence (Q16531 whole entry partner): as the sequence (Q16531 whole entry partner) above
T4 sequence (Q13422 whole entry): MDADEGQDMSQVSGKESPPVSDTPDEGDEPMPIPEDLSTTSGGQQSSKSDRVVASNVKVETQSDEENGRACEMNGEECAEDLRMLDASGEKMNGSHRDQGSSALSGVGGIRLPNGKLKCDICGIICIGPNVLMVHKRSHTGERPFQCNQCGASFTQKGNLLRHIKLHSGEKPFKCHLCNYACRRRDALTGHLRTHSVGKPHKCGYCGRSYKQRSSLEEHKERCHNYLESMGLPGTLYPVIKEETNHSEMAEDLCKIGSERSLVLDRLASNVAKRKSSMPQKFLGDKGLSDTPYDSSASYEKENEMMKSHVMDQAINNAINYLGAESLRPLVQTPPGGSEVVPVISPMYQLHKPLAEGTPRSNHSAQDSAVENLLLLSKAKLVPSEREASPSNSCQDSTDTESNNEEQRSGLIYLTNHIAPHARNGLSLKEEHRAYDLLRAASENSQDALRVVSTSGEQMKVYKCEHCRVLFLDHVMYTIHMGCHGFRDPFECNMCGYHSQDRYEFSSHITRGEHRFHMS
T4 sequence (Q96SW2 whole entry): as the sequence (Q96SW2 whole entry) above
T4 sequence (Q16531 whole entry partner): as the sequence (Q16531 whole entry partner) above
T3 sequence (P15170 whole entry): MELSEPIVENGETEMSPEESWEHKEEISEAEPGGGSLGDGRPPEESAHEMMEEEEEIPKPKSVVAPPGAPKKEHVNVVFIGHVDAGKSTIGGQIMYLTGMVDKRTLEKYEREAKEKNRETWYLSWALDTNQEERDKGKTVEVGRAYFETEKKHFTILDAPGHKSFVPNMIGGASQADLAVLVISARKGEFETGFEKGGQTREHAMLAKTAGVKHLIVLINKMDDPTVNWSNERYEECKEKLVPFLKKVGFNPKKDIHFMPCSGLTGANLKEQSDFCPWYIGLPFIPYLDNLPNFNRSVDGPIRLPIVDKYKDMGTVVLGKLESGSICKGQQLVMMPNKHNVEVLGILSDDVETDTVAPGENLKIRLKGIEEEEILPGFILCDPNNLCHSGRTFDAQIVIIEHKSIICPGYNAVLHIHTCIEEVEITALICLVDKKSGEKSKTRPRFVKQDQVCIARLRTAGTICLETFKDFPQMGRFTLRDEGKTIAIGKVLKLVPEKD
T3 sequence (Q96SW2 whole entry): as the sequence (Q96SW2 whole entry) above
T3 sequence (Q16531 whole entry partner): as the sequence (Q16531 whole entry partner) above
T1 sequence (P48729 whole entry): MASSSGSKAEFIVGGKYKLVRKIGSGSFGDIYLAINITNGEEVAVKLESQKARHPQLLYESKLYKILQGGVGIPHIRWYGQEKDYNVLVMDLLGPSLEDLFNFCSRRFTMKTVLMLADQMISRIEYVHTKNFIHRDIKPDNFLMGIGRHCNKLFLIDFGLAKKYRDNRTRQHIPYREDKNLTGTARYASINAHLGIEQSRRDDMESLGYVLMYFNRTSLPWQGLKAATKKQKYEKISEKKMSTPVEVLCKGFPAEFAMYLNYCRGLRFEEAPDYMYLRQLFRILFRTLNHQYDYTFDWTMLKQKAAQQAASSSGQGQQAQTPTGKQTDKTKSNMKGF
T1 sequence (Q96SW2 whole entry): as the sequence (Q96SW2 whole entry) above
T1 sequence (Q16531 whole entry partner): as the sequence (Q16531 whole entry partner) above

SMILES	Degradation of substrate protein CKla (substrate protein remaining %) (CK1a)	Degradation of substrate protein IKZF2 (substrate protein remaining %) (IKZF2)	Degradation of substrate protein GSPT1 (substrate protein remaining %) (GSPT1)	Degradation of substrate protein IKZF1 (substrate protein remaining %) (IKZF1)	Degradation of substrate protein WEE1 (substrate protein remaining %) (WEE1)	Degradation of substrate protein IKZF3 (substrate protein remaining %) (IKZF3)
CC(C)(C)[Si](C)(C)OCc1cnc(NC2CCC(=O)NC2=O)nc1 (stereo not drawn) [GT-07808, 3-((5-(((tert-Butyldimethylsilyl)oxy)methyl)pyrimidin-2-yl)amino)piperidine-2,6-dione]	B (B is defined as substrate protein remaining % > 80%)	A (A is defined as 0% ≤ substrate protein remaining % ≤ 80%)	B (B is defined as substrate protein remaining % > 80%)	A (A is defined as 0% ≤ substrate protein remaining % ≤ 80%)	A (A is defined as 0% ≤ substrate protein remaining % ≤ 80%)	A (A is defined as 0% ≤ substrate protein remaining % ≤ 80%)
O=C1CCN(c2cncc(CO)n2)C(=O)N1 [GT-07632, 1-(6-(Hydroxymethyl)pyrazin-2-yl)dihydropyrimidine-2,4(1H,3H)-dione]	A (A is defined as 0% ≤ substrate protein remaining % ≤ 80%)	A (A is defined as 0% ≤ substrate protein remaining % ≤ 80%)	B (B is defined as substrate protein remaining % > 80%)	A (A is defined as 0% ≤ substrate protein remaining % ≤ 80%)	A (A is defined as 0% ≤ substrate protein remaining % ≤ 80%)	A (A is defined as 0% ≤ substrate protein remaining % ≤ 80%)
NCc1ccc(N2CCC(=O)NC2=O)cn1 [GT-07048, 1-(6-(Aminomethyl)pyridin-3-yl)dihydropyrimidine-2,4(1H,3H)-dione]	A (A is defined as 0% ≤ substrate protein remaining % ≤ 80%)	A (A is defined as 0% ≤ substrate protein remaining % ≤ 80%)	A (A is defined as 0% ≤ substrate protein remaining % ≤ 80%)	A (A is defined as 0% ≤ substrate protein remaining % ≤ 80%)	B (B is defined as substrate protein remaining % > 80%)	A (A is defined as 0% ≤ substrate protein remaining % ≤ 80%)
CC(C)(C)[Si](C)(C)OCc1cncnc1NC1CCC(=O)NC1=O (stereo not drawn) [GT-07639, 3-((5-(((tert-Butyldimethylsilyl)oxy)methyl)pyrimidin-4-yl)amino)piperidine-2,6-dione]	A (A is defined as 0% ≤ substrate protein remaining % ≤ 80%)	A (A is defined as 0% ≤ substrate protein remaining % ≤ 80%)	A (A is defined as 0% ≤ substrate protein remaining % ≤ 80%)	A (A is defined as 0% ≤ substrate protein remaining % ≤ 80%)	A (A is defined as 0% ≤ substrate protein remaining % ≤ 80%)	A (A is defined as 0% ≤ substrate protein remaining % ≤ 80%)
O=C1CCC(c2ccc(CO)nc2)C(=O)N1 (stereo not drawn) [GT-07010, 3-(6-(Hydroxymethyl)pyridin-3-yl)piperidine-2,6-dione]	A (A is defined as 0% ≤ substrate protein remaining % ≤ 80%)	B (B is defined as substrate protein remaining % > 80%)	A (A is defined as 0% ≤ substrate protein remaining % ≤ 80%)	B (B is defined as substrate protein remaining % > 80%)	B (B is defined as substrate protein remaining % > 80%)	A (A is defined as 0% ≤ substrate protein remaining % ≤ 80%)
O=C1CCC(Nc2ccc(CO)nn2)C(=O)N1 (stereo not drawn) [GT-07803, 3-((6-(Hydroxymethyl)pyridazin-3-yl)amino)piperidine-2,6-dione]	B (B is defined as substrate protein remaining % > 80%)	A (A is defined as 0% ≤ substrate protein remaining % ≤ 80%)	B (B is defined as substrate protein remaining % > 80%)	A (A is defined as 0% ≤ substrate protein remaining % ≤ 80%)	B (B is defined as substrate protein remaining % > 80%)	A (A is defined as 0% ≤ substrate protein remaining % ≤ 80%)
O=C1CCC(Nc2ncccc2CO)C(=O)N1 (stereo not drawn) [GT-07197, 3-((3-(Hydroxymethyl)pyridin-2-yl)amino)piperidine-2,6-dione]	A (A is defined as 0% ≤ substrate protein remaining % ≤ 80%)	B (B is defined as substrate protein remaining % > 80%)	A (A is defined as 0% ≤ substrate protein remaining % ≤ 80%)	B (B is defined as substrate protein remaining % > 80%)	B (B is defined as substrate protein remaining % > 80%)	B (B is defined as substrate protein remaining % > 80%)
O=C1CCC(Nc2ncc(CO)cn2)C(=O)N1 (stereo not drawn) [GT-07809, 3-((5-(Hydroxymethyl)pyrimidin-2-yl)amino)piperidine-2,6-dione]	B (B is defined as substrate protein remaining % > 80%)	A (A is defined as 0% ≤ substrate protein remaining % ≤ 80%)	B (B is defined as substrate protein remaining % > 80%)	A (A is defined as 0% ≤ substrate protein remaining % ≤ 80%)	A (A is defined as 0% ≤ substrate protein remaining % ≤ 80%)	A (A is defined as 0% ≤ substrate protein remaining % ≤ 80%)
CC(C)(C)[Si](C)(C)OCc1cc(NC2CCC(=O)NC2=O)ncc1F (stereo not drawn) [GT-07724, 3-((4-(((tertbutyldimethylsilyl)oxy)methyl)-5-fluoropyridin-2-yl)amino)piperidine-2,6-dione]	B (B is defined as substrate protein remaining % > 80%)	A (A is defined as 0% ≤ substrate protein remaining % ≤ 80%)	A (A is defined as 0% ≤ substrate protein remaining % ≤ 80%)	A (A is defined as 0% ≤ substrate protein remaining % ≤ 80%)	A (A is defined as 0% ≤ substrate protein remaining % ≤ 80%)	A (A is defined as 0% ≤ substrate protein remaining % ≤ 80%)
NCc1cncc(N2CCC(=O)NC2=O)n1 [GT-07801, 1-(6-(Aminomethyl)pyrazin-2-yl)dihydropyrimidine-2,4(1H,3H)-dione]	A (A is defined as 0% ≤ substrate protein remaining % ≤ 80%)	B (B is defined as substrate protein remaining % > 80%)	B (B is defined as substrate protein remaining % > 80%)	B (B is defined as substrate protein remaining % > 80%)	B (B is defined as substrate protein remaining % > 80%)	B (B is defined as substrate protein remaining % > 80%)
O=C1CCC(c2ccc(CO)nc2F)C(=O)N1 (stereo not drawn) [GT-07558, 3-(2-Fluoro-6-(hydroxymethyl)pyridin-3-yl)piperidine-2,6-dione]	A (A is defined as 0% ≤ substrate protein remaining % ≤ 80%)	B (B is defined as substrate protein remaining % > 80%)	B (B is defined as substrate protein remaining % > 80%)	A (A is defined as 0% ≤ substrate protein remaining % ≤ 80%)	A (A is defined as 0% ≤ substrate protein remaining % ≤ 80%)	B (B is defined as substrate protein remaining % > 80%)
